From PubChem BioAssay AID2060616 (Molecular Pharmacology Branch, DTP, NCI, 2025)
“And” between values parts separate entries of the source, which are not always exact repeats. Identical values can stand only once.

Tested on: 377384-186-R-J1-PDC complex spheroid viability
Assay: Anticancer human tumor 377384-186-R-J1-PDC patient-derived pancreatic carcinoma cell line growth inhibition [CLK]
Conditions: for viability, T/C: stronger effect = lower value
Summary of the method: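 Multi-cell-type spheroids combined patient-derived tumor cells with HUVEC endothelial cells and human mesenchymal stem cells. Paired agents were dosed in half-log steps down from about clinical Cmax, or from 10 microM where Cmax was unknown.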

[1] = curve of first compound, second compound 0.0316 µM
[2] = curve of first compound, second compound 0.1 µM
[3] = curve of first compound, second compound 0.316 µM
[4] = curve of first compound, second compound 1 µM
[5] = curve of first compound, second compound 3.16 µM
[6] = curve of first compound, second compound 10 µM
[7] = second compound 0.0316 µM, first compound 0.0316 µM
[8] = second compound 0.0316 µM, first compound 0.1 µM
[9] = second compound 0.0316 µM, first compound 0.316 µM
[10] = second compound 0.0316 µM, first compound 1 µM
[11] = second compound 0.0316 µM, first compound 3.16 µM
[12] = second compound 0.0316 µM, first compound 10 µM
[13] = second compound 0.1 µM, first compound 0.0316 µM
[14] = second compound 0.1 µM, first compound 0.1 µM
[15] = second compound 0.1 µM, first compound 0.316 µM
[16] = second compound 0.1 µM, first compound 1 µM
[17] = second compound 0.1 µM, first compound 3.16 µM
[18] = second compound 0.1 µM, first compound 10 µM
[19] = second compound 0.316 µM, first compound 0.0316 µM
[20] = second compound 0.316 µM, first compound 0.1 µM
[21] = second compound 0.316 µM, first compound 0.316 µM
[22] = second compound 0.316 µM, first compound 1 µM
[23] = second compound 0.316 µM, first compound 3.16 µM
[24] = second compound 0.316 µM, first compound 10 µM
[25] = second compound 1 µM, first compound 0.0316 µM
[26] = second compound 1 µM, first compound 0.1 µM
[27] = second compound 1 µM, first compound 0.316 µM
[28] = second compound 1 µM, first compound 1 µM
[29] = second compound 1 µM, first compound 3.16 µM
[30] = second compound 1 µM, first compound 10 µM
[31] = second compound 3.16 µM, first compound 0.0316 µM
[32] = second compound 3.16 µM, first compound 0.1 µM
[33] = second compound 3.16 µM, first compound 0.316 µM
[34] = second compound 3.16 µM, first compound 1 µM
[35] = second compound 3.16 µM, first compound 3.16 µM
[36] = second compound 3.16 µM, first compound 10 µM
[37] = second compound 10 µM, first compound 0.0316 µM
[38] = second compound 10 µM, first compound 0.1 µM
[39] = second compound 10 µM, first compound 0.316 µM
[40] = second compound 10 µM, first compound 1 µM
[41] = second compound 10 µM, first compound 3.16 µM
[42] = second compound 10 µM, first compound 10 µM
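Further: spheroids exposed to agents for 7 days before reading.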
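Wherever viability, T/C is given: luminescence signal used as a stand-in for viable cells.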

O=c1[nH]cc(F)c(=O)[nH]1 + CN1CCN(c2cc(C(=O)Nc3cc4cc(-c5cnn(C)c5)ccc4cn3)ccn2)CC1
IC50 [1]: 7600 nM
IC50 [2]: > 10000 nM
IC50 [3]: < 31.6 nM
IC50 [4]: < 31.6 nM
IC50 [5]: < 31.6 nM
IC50 [6]: < 31.6 nM
viability, T/C [7]: 121%
viability, T/C [8]: 122%
viability, T/C [9]: 91.6%
viability, T/C [10]: 84.5%
viability, T/C [11]: 60.1%
viability, T/C [12]: 46.5%
viability, T/C [13]: 104%
viability, T/C [14]: 107%
viability, T/C [15]: 92.2%
viability, T/C [16]: 94.4%
viability, T/C [17]: 65.4%
viability, T/C [18]: 56.1%
viability, T/C [19]: 25.5%
viability, T/C [20]: 28.4%
viability, T/C [21]: 22.2%
viability, T/C [22]: 29.3%
viability, T/C [23]: 28.3%
viability, T/C [24]: 21.5%
viability, T/C [25]: 1.11%
viability, T/C [26]: 0.76%
viability, T/C [27]: 1.57%
viability, T/C [28]: 1.15%
viability, T/C [29]: 0.86%
viability, T/C [30]: 1.02%
viability, T/C [31]: 0.29%
viability, T/C [32]: 0.87%
viability, T/C [33]: 1.83%
viability, T/C [34]: 0.32%
viability, T/C [35]: 0.25%
viability, T/C [36]: 0.31%
viability, T/C [37]: 0.28%
viability, T/C [38]: 0.51%
viability, T/C [39]: 0.49%
viability, T/C [40]: 0.42%
viability, T/C [41]: 0.53%
viability, T/C [42]: 1.86%

CC(CO)NC(=O)c1cc(-c2ccc(Cl)cc2)nn(-c2cnn(C)c2)c1=O (configuration not stated)
viability, T/C (compound 0.0316 µM): 94.9% and 112%
viability, T/C (compound 0.1 µM): 101% and 85.5%
viability, T/C (compound 0.316 µM): 105% and 103%
viability, T/C (compound 1 µM): 102% and 82.1%
viability, T/C (compound 3.16 µM): 77.7% and 70.1%
viability, T/C (compound 10 µM): 39.5% and 45.9%
IC50 (curve of compound): 7290 nM and 8480 nM

Nc1ccn(C2OC(CO)C(O)C2(F)F)c(=O)n1 (configuration not stated) + CNC(=O)c1ccc(Nc2nc(OC3CCCC3)c3c(-c4ccc5nc(C)oc5c4)c[nH]c3n2)c(OC)c1
IC50 [1]: < 31.6 nM
IC50 [2]: < 31.6 nM
IC50 [3]: < 31.6 nM
IC50 [4]: < 31.6 nM
IC50 [5]: < 31.6 nM
IC50 [6]: < 31.6 nM
viability, T/C [7]: 8.18%
viability, T/C [8]: 3.36%
viability, T/C [9]: 3.13%
viability, T/C [10]: 2.68%
viability, T/C [11]: 2.2%
viability, T/C [12]: 1.72%
viability, T/C [13]: 6.64%
viability, T/C [14]: 4.51%
viability, T/C [15]: 2.85%
viability, T/C [16]: 2.62%
viability, T/C [17]: 2.66%
viability, T/C [18]: 2.22%
viability, T/C [19]: 7.09%
viability, T/C [20]: 3.96%
viability, T/C [21]: 3.31%
viability, T/C [22]: 2.62%
viability, T/C [23]: 2.25%
viability, T/C [24]: 1.52%
viability, T/C [25]: 8.74%
viability, T/C [26]: 4.85%
viability, T/C [27]: 4.17%
viability, T/C [28]: 3.63%
viability, T/C [29]: 1.95%
viability, T/C [30]: 1.24%
viability, T/C [31]: 8.43%
viability, T/C [32]: 6.12%
viability, T/C [33]: 4.34%
viability, T/C [34]: 3.36%
viability, T/C [35]: 3.71%
viability, T/C [36]: 1.58%
viability, T/C [37]: 9.23%
viability, T/C [38]: 7.84%
viability, T/C [39]: 5.26%
viability, T/C [40]: 3.45%
viability, T/C [41]: 2.47%
viability, T/C [42]: 1.32%

CC1(C)CCC(CN2CCN(c3ccc(C(=O)NS(=O)(=O)c4ccc(NCC5CCOCC5)c([N+](=O)[O-])c4)c(Oc4cnc5[nH]ccc5c4)c3)CC2)=C(c2ccc(Cl)cc2)C1
viability, T/C (compound 0.0316 µM): 83.6% and 106%
viability, T/C (compound 0.1 µM): 86.1% and 92.5%
viability, T/C (compound 0.316 µM): 92.9% and 90.5%
viability, T/C (compound 1 µM): 99% and 97%
viability, T/C (compound 3.16 µM): 82.7% and 83.9%
IC50 (curve of compound): 5200 nM and > 10000 nM
